Measurements as given in ChEMBL document CHEMBL1201862, “PubChem BioAssay data set” (2004).
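Five compound concentrations were applied to cells in 96-well plates for 48 hours; endpoints were derived by simple linear interpolation of the resulting dose-response curve. GI50 is the concentration that inhibits growth by half.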 Calls of active or inactive are those of the source. No stated cut-off is given here; in the data, active = GI50 up to about 1.1 µM and inactive = higher.

How the values were obtained:
Assay in all cases: NCI tumour cell line growth inhibition, 48 h
786-0 = system: 786-0
A498 = system: A498
A549 = system: A549
ACHN = system: ACHN
BT-549 = system: BT-549
CAKI-1 = system: CAKI-1
CCRF-CEM = system: CCRF-CEM
EKVX = system: EKVX
HCC 2998 = system: HCC 2998
HCT-15 = system: HCT-15
HL-60 = system: HL-60
HOP-92 = system: HOP-92
HT-29 = system: HT-29
Hs-578T = system: Hs-578T
IGROV-1 = system: IGROV-1
K562 = system: K562
KM12 = system: KM12
LOX IMVI = system: LOX IMVI
M14 = system: M14
MCF7 = system: MCF7
MOLT-4 = system: MOLT-4
NCI-H23 = system: NCI-H23
NCI-H460 = system: NCI-H460
NCI/ADR-RES = system: NCI/ADR-RES
OVCAR-3 = system: OVCAR-3
OVCAR-4 = system: OVCAR-4
OVCAR-5 = system: OVCAR-5
OVCAR-8 = system: OVCAR-8
PC-3 = system: PC-3
RPMI-8226 = system: RPMI-8226
RXF 393 = system: RXF 393
SF-268 = system: SF-268
SF-539 = system: SF-539
SK-MEL-28 = system: SK-MEL-28
SK-MEL-5 = system: SK-MEL-5
SK-OV-3 = system: SK-OV-3
SN12C = system: SN12C
SNB-19 = system: SNB-19
SNB-75 = system: SNB-75
SR = system: SR
SW-620 = system: SW-620
TK-10 = system: TK-10
U-251 = system: U-251
UACC-62 = system: UACC-62
UO-31 = system: UO-31
COLO 205 = system: COLO 205
DU-145 = system: DU-145
HOP-62 = system: HOP-62
MDA-MB-231 = system: MDA-MB-231
MDA-MB-435 = system: MDA-MB-435
MDA-N = system: MDA-N
Malme-3M = system: Malme-3M
NCI-H226 = system: NCI-H226
NCI-H522 = system: NCI-H522
SF-295 = system: SF-295
SK-MEL-2 = system: SK-MEL-2
T47D = system: T47D
UACC-257 = system: UACC-257

Measured: GI50

COc1cc(/C=C2\CCc3ccccc3C2=O)ccc1O
inactive: 786-0 13.7 µM | A498 > 10 µM | A549 22.1 µM | ACHN 26.4 µM | BT-549 17.9 µM | CAKI-1 24.3 µM | CCRF-CEM 1.41 µM | EKVX 25.4 µM | HCC 2998 5.64 µM | HL-60 4.24 µM | HOP-92 22.6 µM | HT-29 18.2 µM | Hs-578T 29 µM | IGROV-1 34.3 µM | K562 16.8 µM | KM12 16.3 µM | LOX IMVI 15 µM | M14 17.9 µM | MCF7 11.1 µM | MOLT-4 12 µM | NCI-H23 23 µM | NCI-H460 17.3 µM | NCI/ADR-RES 29.5 µM | OVCAR-3 19.6 µM | OVCAR-4 18.5 µM | OVCAR-5 14.2 µM | OVCAR-8 19.1 µM | PC-3 > 10 µM | RPMI-8226 17.9 µM | RXF 393 12 µM | SF-268 27.1 µM | SF-539 16.1 µM | SK-MEL-28 21.1 µM | SK-MEL-5 17.7 µM | SK-OV-3 26 µM | SN12C 22.4 µM | SNB-19 14.6 µM | SNB-75 28.5 µM | SR 11.2 µM | SW-620 16.1 µM | TK-10 18.7 µM | U-251 16.9 µM | UACC-62 > 10 µM | UO-31 14.3 µM
22.4 µM: HCT-15

[O-][Cl+3]([O-])([O-])O.c1ccc(C2=NN2c2ccccc2)cc1
7.89 µM: HCT-15
active: ACHN 0.927 µM | LOX IMVI 0.451 µM
inactive: A498 > 100 µM | A549 7.96 µM | BT-549 > 100 µM | CAKI-1 > 100 µM | CCRF-CEM > 100 µM | COLO 205 7.76 µM | DU-145 5.89 µM | EKVX 92.7 µM | HCC 2998 6.28 µM | HOP-62 > 100 µM | HOP-92 > 100 µM | HT-29 29.3 µM | IGROV-1 34 µM | K562 2.32 µM | KM12 7.41 µM | M14 9.82 µM | MCF7 60 µM | MDA-MB-231 > 100 µM | MDA-MB-435 2.83 µM | MDA-N 4.27 µM | MOLT-4 3.73 µM | Malme-3M 29.5 µM | NCI-H226 14.3 µM | NCI-H23 85.7 µM | NCI-H460 71.8 µM | NCI-H522 35.3 µM | NCI/ADR-RES > 100 µM | OVCAR-3 84.9 µM | OVCAR-4 > 100 µM | OVCAR-5 > 100 µM | OVCAR-8 > 100 µM | PC-3 6.7 µM | RXF 393 > 100 µM | SF-268 21.8 µM | SF-295 > 100 µM | SF-539 76.2 µM | SK-MEL-28 > 100 µM | SK-MEL-2 > 100 µM | SK-MEL-5 13.8 µM | SK-OV-3 > 100 µM | SN12C > 100 µM | SNB-19 > 100 µM | SNB-75 > 100 µM | SR 26.7 µM | SW-620 6.01 µM | T47D 7.13 µM | TK-10 > 100 µM | U-251 > 100 µM | UACC-257 59.6 µM | UACC-62 1.21 µM | UO-31 15.9 µM
